Earlier results in patent US20210319872A1, “DRUG AND DEVICE COMBINATION PRODUCTS WITH IMPROVED SAFETY AND EFFICACY PROFILES” (priority 2016, published 2021).

Details: in vivo

For `COCCOC(=O)C1=C(C)NC(C)=C(C(=O)OC(C)C)C1c1cccc([N+](=O)[O-])c1` (centres unmarked) [Nimodipine (Nimotop)], the Congestive heart failure is given as “Cardiovascular: Congestive heart failure (less than 1%)”, the Diarrhea is given as “Gastrointestinal: Diarrhea (up to 4.2%), Nausea (0.6% to 1.4%)” and the Disseminated intravascular coagulation is given as “(less than 1%), Hematoma (less than 1%)”. The Gastrointestinal hemorrhage was “Gastrointestinal: Gastrointestinal hemorrhage (less than 1%)”, the Headache was “Neurologic: Headache (up to 4.1%)” and the Hematoma was “(less than 1%), Hematoma (less than 1%)”. The Hypotension was “Cardiovascular: Hypotension (up to 8.1%)”, the Nausea was “Gastrointestinal: Diarrhea (up to 4.2%), Nausea (0.6% to 1.4%)” and the “Serious side effects, listed without incidence or only as rare” value was “Hematologic: Bleeding, Disseminated intravascular coagulation”.

In the case of `O=C(NC[C@H]1CN(c2ccc(N3CCOCC3=O)cc2)C(=O)O1)c1ccc(Cl)s1` [Rivaroxaban (Xarelto)], the Gastrointestinal hemorrhage is given as “fibrillation, 3.1%)” and the Syncope is given as “Cardiovascular: Syncope (1.2%)”.

For `CCOc1nc2cccc(C(=O)O)c2n1Cc1ccc(-c2ccccc2-c2nnn[nH]2)cc1` [Candesartan (Atacand)], the Backache is listed as “Musculoskeletal: Backache (3%.)”, the Dizziness is listed as “Neurologic: Dizziness (less than 5%)” and the Hypotension is listed as “Cardiovascular: Hypotension (18.8%)”. For the same molecule, the Pharyngitis was “Respiratory: Pharyngitis (2%), Rhinitis (2%), Upper respiratory”, the Rhinitis was “Respiratory: Pharyngitis (2%), Rhinitis (2%), Upper respiratory” and the Upper respiratory infection was “infection (6%)”.

In the case of `COc1ccc(-n2nc(C(N)=O)c3c2C(=O)N(c2ccc(N4CCCCC4=O)cc2)CC3)cc1` [Apixaban (Eliquis)], the Bleeding gums is listed as “Gastrointestinal: Bleeding gums (Less than 0.1% to 1.4%)”, the “Bleeding, Major” value is listed as “prophylaxis, 2.88% to 4.83%), Bleeding, Major (0.1% to 2.13%),” and the Conjunctival hemorrhage is listed as “Ophthalmic: Conjunctival hemorrhage (0.1% to less than 1%),”. The Contusion was “Dermatologic: Contusion (1.4% to 2.2%)”, the Hematochezia was “pulmonary embolism, 0.1% to less than 1%), Hematochezia (0.1%” and the Hematoma was “Hematologic: Hematoma (DVT, 1.3% to 1.5%)”. The Hemorrhage was “Hemorrhage (0.1% to 1.4%), Hemorrhage, Operative (DVT”, the Hemorrhage of muscle was “Musculoskeletal: Hemorrhage of muscle (Less than 0.1% to less” and the “Hemorrhage, Operative” value was “prophylaxis, 0.1% to less than 1%)”. The Hypersensitivity reaction was < 1%), the Intracranial hemorrhage was “fibrillation, 0.33% to 0.34%/year), Non-traumatic spinal subdural” and the Intraocular hemorrhage was “Intraocular hemorrhage (Less than 0.1% to less than 1%), Retinal”. The “Liver function tests abnormal” value was 0.1% to less than 1%), Serum bilirubin raised (DVT prophylaxis,, the Menorrhagia was “Reproductive: Menorrhagia (1.4%)” and the Retinal hemorrhage was “hemorrhage (0.1% to less than 1%)”. The Serum bilirubin raised was 0.1% to less than 1%).

For `CCC1(CCC(C)C)C(=O)NC(=O)NC1=O` [Amytal (amobarbital)], the Agranulocytosis is given as “Hematologic: Agranulocytosis (rare), Megaloblastic anemia, With”, the “Common side effect, Neurologic” value is given as “Neurologic: Confusion, Dizziness, Headache, Somnolence” and the “Injury of liver, With prolonged use” value is given as “Hepatic: Injury of liver, With prolonged use (rare)”. For the same molecule, the “Megaloblastic anemia, With prolonged use” value was “prolonged use (rare)”, the “Serious side effect, Respiratory” value was “Respiratory: Apnea, Hypoventilation” and the Stevens-Johnson syndrome was “Dermatologic: Stevens-Johnson syndrome (rare)”.

In the case of `O=C1CN=C(c2ccccc2Cl)c2cc([N+](=O)[O-])ccc2N1` [Klonopin (clonazepam)], the Ataxia is given as “Neurologic: Ataxia (5% to 30%), Coordination problem (6%),”, the Coordination problem is given as “Neurologic: Ataxia (5% to 30%), Coordination problem (6%),” and the Depression is given as “Psychiatric: Depression (7%), Suicidal thoughts”. For the same molecule, the Dizziness was “Dizziness (8%), Somnolence (37% to 50%)”, the Fatigue was “Other: Fatigue (7%)” and the Problem behavior was “Psychiatric: Problem behavior (25%)”. The “Serious side effect, Psychiatric” value was “Psychiatric: Depression (7%), Suicidal thoughts”, the “Serious side effect, Respiratory” value was “Respiratory: Respiratory depression” and the Somnolence was “Dizziness (8%), Somnolence (37% to 50%)”. The Upper respiratory infection was “Respiratory: Upper respiratory infection (8%)”.

For `O=[N+]([O-])OCC(CO[N+](=O)[O-])O[N+](=O)[O-]` [Nitrates (Nitroglycerin)], the “Common side effect listed (incidence not given)” value is listed as “Dermatologic: Flushing”, the “Dizziness (incidence)” value is listed as “Neurologic: Dizziness (5%), Headache (63% to 64%),” and the “Headache (incidence)” value is listed as “Neurologic: Dizziness (5%), Headache (63% to 64%),”. The “Hypotension (incidence)” value was “Cardiovascular: Hypotension (4%)” and the “Lightheadedness (incidence)” value was “Lightheadedness (6%)”.

For `CN1CCN2c3ncccc3Cc3ccccc3C2C1` (centres unmarked) [Mirtazepine (Remeron)], the ALT/SGPT level raised is listed as “Hepatic: ALT/SGPT level raised (2%)”, the Asthenia is listed as “Neurologic: Asthenia (8%), Dizziness (7%), Somnolence (54%)” and the Cirrhosis of liver is listed as “Hepatic: Cirrhosis of liver (less than 0.1%)”. For the same molecule, the Constipation was “Gastrointestinal: Constipation (13%), Xerostomia (25%)”, the Disturbance in thinking was “Psychiatric: Disturbance in thinking (3%)” and the Dizziness was “Neurologic: Asthenia (8%), Dizziness (7%), Somnolence (54%)”. For the same molecule, the Grand mal seizure was “Neurologic: Grand mal seizure (less than 0.1%), Status epilepticus”, the Increased appetite was “Endocrine metabolic: Increased appetite (17%), Serum triglycerides” and the Serum triglycerides raised was “raised (increases to 500 mg/dL or greater: 6%), Weight gain (body”. For the same molecule, the Somnolence was “Neurologic: Asthenia (8%), Dizziness (7%), Somnolence (54%)”, the Weight gain was “weight increase of 7% or greater: adults 7.5%; pediatrics 49%)” and the Xerostomia was “Gastrointestinal: Constipation (13%), Xerostomia (25%)”.

In the case of `CC1(C)O[C@@H]2[C@@H](CO[C@@]3(COS(N)(=O)=O)OC(C)(C)O[C@@H]23)O1` [Topiramate (Topamax)], the Confusion is listed as “Neurologic: Confusion (3% to 11%), Dizziness (4% to 25%),”, the Dizziness is listed as “Neurologic: Confusion (3% to 11%), Dizziness (4% to 25%),” and the Fatigue is listed as “Other: Fatigue (6% to 16%), Fever (1% to 12%)”. The Fever was “Other: Fatigue (6% to 16%), Fever (1% to 12%)”, the Flushing was “Dermatologic: Flushing (pediatrics, 5%)” and the Hyperammonemia was “Endocrine metabolic: Hyperammonemia (Adolescents, 26%),”. The Impaired cognition was “Impaired cognition (2% to 7%), Impaired psychomotor”, the Impaired psychomotor performance was “performance (2% to 13%), Memory impairment (3% to 12%),” and the Infectious disease was “Immunologic: Infectious disease (2% to 8%)”. The Memory impairment was “performance (2% to 13%), Memory impairment (3% to 12%),”, the Nephrolithiasis was “Renal: Nephrolithiasis (adults, 1% to 3%)” and the “Serious side effect, Endocrine metabolic” value was “Hypohidrosis, Increased body temperature, Metabolic acidosis”. The “Serious side effect, Hepatic” value was “Hepatic: Liver failure”, the “Serious side effect, Neurologic” value was “Neurologic: Drug-induced encephalopathy” and the “Serious side effect, Ophthalmic” value was “Ophthalmic: Glaucoma, Myopia, Visual field defect (epilepsy,”. For the same molecule, the “Serious side effect, Psychiatric” value was “Psychiatric: Suicidal thoughts”, the Somnolence was 10%), Somnolence (6% to 29%) and the Visual field defect was 0.1% to 1%). For the same molecule, the Weight decreased was “(4% to 21%)”.

For `CN1C(=O)CN=C(c2ccccc2)c2cc(Cl)ccc21` [Valium (diazepam)], the “Common side effect, Cardiovascular” value is given as “Cardiovascular: Hypotension”, the “Common side effect, Musculoskeletal” value is given as “Musculoskeletal: Muscle weakness” and the “Common side effect, Neurologic” value is given as “Neurologic: Ataxia, Incoordination (3%, rectal gel), Somnolence”. For the same molecule, the “Common side effect, Other” value was “Other: Fatigue”, the “Common side effect, Respiratory” value was “Respiratory: Respiratory depression” and the Diarrhea was “Gastrointestinal: Diarrhea (4%, rectal gel)”. For the same molecule, the Euphoria was “Psychiatric: Euphoria (3%, rectal gel)”, the Incoordination was “Neurologic: Ataxia, Incoordination (3%, rectal gel), Somnolence” and the Rash was “Dermatologic: Rash (3%, rectal gel)”. For the same molecule, the “Serious side effect, Hematologic” value was “Hematologic: Neutropenia”.

For `CCC[C@H](N[C@@H](C)C(=O)N1[C@H](C(=O)O)C[C@@H]2CCCC[C@@H]21)C(=O)OCC` [Perindopril (Aceon)], the Angioedema is given as “Other: Angioedema (0.1% to 0.5%)”, the Backache is given as “Musculoskeletal: Backache (5.8%)” and the Cough is given as “Respiratory: Cough (12%)”. The Dizziness was “Neurologic: Asthenia, Dizziness (8.2%), Headache” and the Orthostatic hypotension was “Cardiovascular: Cardiac arrest, Orthostatic hypotension (0.8%)”.

For `NS(=O)(=O)c1cc(C2(O)NC(=O)c3ccccc32)ccc1Cl` (centres unmarked) [Chlorthalidone (Hygroton)], the “Common side effect listed (incidence not given)” value is given as “Endocrine metabolic: Hyperuricemia”.

In the case of `N=C(N)NC(=O)c1nc(Cl)c(N)nc1N` [Amiloride (Midamor)], the Asthenia is listed as “Musculoskeletal: Asthenia (greater than 1% to less than 3%),”, the “Cardiac dysrhythmia (incidence)” value is listed as “Cardiovascular: Cardiac dysrhythmia (1% or less), Palpitations (1%” and the “Cough (incidence)” value is listed as “Respiratory: Cough (greater than 1% to less than 3%), Dyspnea”. The Cramp was “Cramp (greater than 1% to less than 3%)”, the Diarrhea was “Gastrointestinal: Diarrhea (3% to 8%), Loss of appetite (3% to 8%),” and the Dizziness was “Neurologic: Dizziness (greater than 1% to less than 3%), Headache”. The “Dyspnea (incidence)” value was “(greater than 1% to less than 3%)”, the “Encephalopathy (incidence)” value was “Neurologic: Encephalopathy (greater than 1% to less than 3%)” and the “Headache (incidence)” value was “(3% to 8%)”. The “Hyperkalemia (incidence)” value was “Endocrine metabolic: Hyperkalemia (10%)”, the Nausea was “Nausea (3% to 8%), Vomiting (3% to 8%)” and the “Palpitations (incidence)” value was “Cardiovascular: Cardiac dysrhythmia (1% or less), Palpitations (1%”. The “Raised intraocular pressure (incidence)” value was “Ophthalmic: Raised intraocular pressure (1% or less)”, the Rash was “Dermatologic: Rash (1% or less)” and the “Serious side effect listed (incidence not given)” value was “Hematologic: Aplastic anemia, Neutropenia”. The Vomiting was “Nausea (3% to 8%), Vomiting (3% to 8%)”.

In the case of `CCC(=O)O[C@@H](O[P@](=O)(CCCCc1ccccc1)CC(=O)N1C[C@H](C2CCCCC2)C[C@H]1C(=O)O)C(C)C` [Fosinopril (Monopril)], the Cough is listed as “Respiratory: Cough (2.2% to 9.7%)”, the Dizziness is listed as “Neurologic: Dizziness (1.6% to 11.9%)” and the Hyperkalemia is listed as “Endocrine metabolic: Hyperkalemia (2.6%)”. For the same molecule, the Hypotension was “Cardiovascular: Hypotension (2.4% to 4.4%)” and the Nausea and vomiting was “Gastrointestinal: Nausea and vomiting (1.2% to 2.2%)”.
